The source of these data is US6413976B1, “Compositions and method for decreasing neuropathic pain” (Trustees of Dartmouth College, priority 1999, dated 2002).

For data set [1] the following is noted: oral dosing; cited from earlier work.
The subject of data set [2] is spinal nerve transection in the rat. As to the kind of experiment: Spinal nerve transection model of chronic neuropathic pain, mechanical allodynia (von Frey filaments). The format is in vivo. The settings on record: for mechanical allodynia: L5 spinal nerve transection, dose-dependent. How it is done: Experiments were performed using a well-established animal model for chronic pain, spinal nerve transection in the rat. The model measures changes in mechanical allodynia, or an increased sensitivity following non-noxious stimulus, such as touch. Rats were injected intraperitdneally one day before and then daily for ten days following nerve transection. […] The effect was dose-dependent, with larger reductions seen with higher doses of the drug.
The same model. was used with rats injected intrathecally with either saline or propentofylline (1 or 3 μg), daily for 10 days. […] The responses were also dose-dependent with the largest reduction seen at the highest dose tested.
Surgery was performed under inhalation anesthesia using halothane in 100% oxygen at 4% and maintained at 2%. Each rat received a single unilateral lesion directed at a left L5 spinal root or spinal nerve. The nerve was identified, freed from adjacent nerves and transected. For sham lesions, a minilaminectomy was performed of the L5 vertebral segment without lesioning. Animals were allowed to recover from anesthesia and were not subjected to any additional surgical procedures or anesthesia until the end of the study when they were euthanized.
Propentofylline was injected intraperitoneally at doses of 1 and 10 mg/kg the day before and for each day of testing (10 days). Saline injections served as a control. Other rats were injected intrathecally at doses of 1 and 3 μg on each day of testing.
Mechanical hypersensitivity was measured as the frequency of foot withdrawals elicited by a defined mechanical stimulus. […]
In blinded testing, rats were subjected to sequential series of 10 tactile stimulations to the plantar surface of the ipsilateral hindpaw using 2 and 12 gauge von Frey filaments (Stoelting Co., WoodDale, Ill.) sequentially. […] Mechanical sensitivity was assessed by recording the total number of responses elicited during three successive trials separated by at least 10 minutes.

For data set [3], the system named is humans with neurodegenerative disease. Particulars: Alzheimer's Disease and vascular dementia; cited from earlier work.

On to `CCCn1cnc2c1c(=O)n(CCCCC(C)=O)c(=O)n2C` [propentofylline, Propentofylline], for which the absorption and metabolism result in data set [1] was “well absorbed and extensively metabolized”. In addition, the mechanical allodynia entry in data set [2] (intraperitoneal 1 and 10 mg/kg, one day before and daily for ten days) is reported as “significant decrease in mechanical allodynia”; in data set [2] (intrathecal 1 or 3 μg daily for 10 days vs saline), “significant decrease in mechanical allodynia”. In addition, in data set [2] (increasing doses, both central and peripheral routes), the “responses to stimulation (foot withdrawals to von Frey filaments)” value is listed as “dose-dependent decreases in responses to stimulation”. Moreover, the “safety and efficacy in clinical trials” value in data set [3] was “both safe and effective”.
